Twelve molecules from patent US5143910A, “Piperaziniocephalosporins” (Shionogi & Co., Ltd., priority 1989, dated 1992) can be followed below.

Data set [1] has as its system Pseudomonas aeruginosa ATCC 25619. Description: MIC on agar plate by two fold dilution (Japan Society of Chemotherapy) against Pseudomonas aeruginosa ATCC 25619. The note with it: ATCC25619, P. aeruginosa ATCC 25619, in 0.01N-sodium hydrogen carbonate, read-out: minimal inhibitory concentration (MIC). Format: cell-based. An excerpt:
By altering the groups with the followings, the activity varied as below (AT=2-amino-4-thiazolyl).

Data set [2] in a line: urinary and bile juice recovery after subcutaneous injection. The note with it: urine and bile, sc; during 2 hours after subcutaneous injection (20 mg/kg); read-out: urinary and bile juice recovery (total). Format: in vivo.
The test system of a further data set is Enterobacter cloacae. Nature of the data set: antibacterial activity against clinically isolated Enterobacter cloacae. Format: cell-based.
In the next data set the test system is Morgania morganii. Nature of the data set: antibacterial activity against clinically isolated Morgania morganii. Format: cell-based.
Data set [3] in a line: antibacterial activity against clinically isolated Clostridium freundii. The data set is classed as cell-based.
The test system of data set [4] is Pseudomonas aeruginosa SR 24. Description: 50% effective dose for preventing mouse from death caused by Pseudomonas aeruginosa SR 24. The data set is classed as in vivo. As to the method: The 50% effective dose of compound (I) where R^1 is 2-(2-amino-4-thiazolyl)-2-(1-carboxy-1-methylethoxy)imino-acetamido, R^2 is hydrogen, R^3 is methyl, R^4 R^5 is 3,4-dihydroxybenzoyl, R^6 combined with Y^- is a negative charge, X is sulfur for preventing mouse from the death caused by Pseudomonas aeruginose SR 24 is 1.25 mg/kg.

Data set [5] has as its system Pseudomonas aeruginosa SR 5018. Description: MIC against ofloxacin resistant Pseudomonas aeruginosa SR 5018. The data set is classed as cell-based.
Data set [6] concerns Pseudomonas aeruginosa SR 4967. Description: ED50 against Pseudomonas aeruginosa SR 4967. Format: in vivo. The note with it: SR4967, mouse.
Data set [7] deals with Serratia marcescens A 13880. Nature of the data set: ED50 against Serratia marcescens A 13880. Format: in vivo. Particulars: A13880, mouse.
Data set [8] can be described thus: safety test, intravenous injection, rabbit. The data set is classed as in vivo. The note with it: dose up to 1 g/kg.
Data set [9] concerns Pseudomonas aeruginosa SR 24. Nature of the data set: MIC against Pseudomonas aeruginosa SR 24. The note with it: SR24. Format: cell-based.
A short description of data set [10]: safety test, intravenous injection, mouse. Format: in vivo. The note with it: dose up to 1 g/kg.

In brackets after ≈: the same amount, converted by molar mass. Where two headings read alike, the source gives them in different places.

For `CO[C@@]1(NC(=O)CSC(F)F)C(=O)N2C(C(=O)[O-])=C(C[N+]3(C)CCN(C(=O)c4ccc(O)c(O)c4)CC3)CO[C@@H]21` [No. 1], the MIC in [1] was over 100 µg/mL.
On the same count and under the same terms, under `CC(C)(O/N=C(\C(=O)N[C@@H]1C(=O)N2C(C(=O)[O-])=C(C[N+]3(C)CCN(C(=O)c4cc(Cl)c(O)c(O)c4Cl)CC3)CS[C@H]12)c1csc(N)n1)C(=O)O` [No. 13] stands 0.02 µg/mL (≈ 0.0259 µM).
The same measure, in the same setting: then `CO/N=C(\C(=O)N[C@@H]1C(=O)N2C(C(=O)[O-])=C(C[N+]3(C)CCN(CC(=O)c4ccc(O)c(O)c4)CC3)CS[C@H]12)c1csc(N)n1` [No. 6], with 0.05 µg/mL (≈ 0.0774 µM).
The same measure, in the same setting: then `C[N+]1(CC2=C(C(=O)[O-])N3C(=O)[C@@H](NC(=O)Cc4ccccc4)[C@H]3SC2)CCN(C(=O)c2ccc(O)c(O)c2)CC1` [No. 2], with over 100 µg/mL.
For `CC(C)(O/N=C(\C(=O)N[C@@H]1C(=O)N2C(C(=O)[O-])=C(C[N+]3(C)CCN(C(=O)c4ccc(O)c(O)c4)CC3)CS[C@H]12)c1csc(N)n1)C(=O)O` [No. 8, 7β-[2-(2-amino-4-thiazolyl)-2-(1-carboxy-1-methylethoxyimino)acetamido]-3-[4-(3,4-dihydroxybenzoyl)-1-methylpiperazinio-1-yl]methyl-3-cephem-4-carboxylate], in [2], the dose excreted at 2 h was 70.4%. Also, the antibacterial activity result (in the data set on Enterobacter cloacae; with Morgania morganii; in [3]) was “high antibacterial activity” throughout. In addition, the ED50 was 1.25 mg/kg in [4] (Pseudomonas aeruginosa, SR24, read-out: 50% effective dose for preventing mouse from death); 1.41 mg/kg in [4] (SR24, mouse, Pseudomonas aeruginosa SR 24, read-out: ED50 (mouse)); 4.91 mg/kg in data set [6]; 0.28 mg/kg in [7]. Also, the “times more potent (ED50) than reference 3-(3,4-dihydroxybenzyl) compound” value in data set [4] (vs 3.4 mg/kg of the reference, P. aeruginosa SR 24) was found to be 2.4 times. The “times more potent (ED50) than reference 3-(dihydroxyphenylthiadiazolylthio)methyl compound” value in data set [4] (vs 16.3 mg/kg of the reference, P. aeruginosa SR 24) worked out at 11.6 times. Besides, the MIC in data set [5] (SR5018, ofloxacin resistant Pseudomonas aeruginosa SR 5018) was determined as 0.05 µg/mL (≈ 0.071 µM); in data set [9], 0.1 µg/mL (≈ 0.142 µM). Moreover, the “times more potent (MIC) than BO-1341” value in data set [5] (vs 0.4 γ/ml of BO-1341, P. aeruginosa SR 5018) came to 8 times. Moreover, in data set [5] (vs 6.3 γ/ml of E-1040, P. aeruginosa SR 5018), the “times more potent (MIC) than E-1040” value came to 126 times. The “times more potent (MIC) than ceftazidime” value in data set [5] (vs 25 γ/ml of ceftazidime, P. aeruginosa SR 5018) worked out at 500 times. Moreover, the death entry in [8] and in data set [10] was “did not show death” each time.
Turning to `CC(C)(O/N=C(\C(=O)N[C@@H]1C(=O)N2C(C(=O)[O-])=C(C[N+]3(C)CCN(C(=O)c4cc(O)c(O)c(Cl)c4)CC3)CS[C@H]12)c1csc(N)n1)C(=O)O` [No. 11], the MIC in [1] came out at 0.02 µg/mL (≈ 0.0271 µM).
Same read-out and setting: then `CC(C)(O/N=C(\C(=O)N[C@@H]1C(=O)N2C(C(=O)[O-])=C(C[N+]3(C)CCN(C(=O)c4cc(O)c(O)cc4Cl)CC3)CS[C@H]12)c1csc(N)n1)C(=O)O` [No. 12], with 0.02 µg/mL (≈ 0.0271 µM); and `CC(C)(O/N=C(\C(=O)N[C@@H]1C(=O)N2C(C(=O)[O-])=C(C[N+]3(C)CCN(Cc4ccc(O)c(O)c4)CC3)CS[C@H]12)c1csc(N)n1)C(=O)O` [No. 15], with 0.1 µg/mL (≈ 0.145 µM); and `C=C(O/N=C(\C(=O)N[C@@H]1C(=O)N2C(C(=O)[O-])=C(C[N+]3(C)CCN(C(=O)c4ccc(O)c(O)c4)CC3)CS[C@H]12)c1csc(N)n1)C(=O)O` [No. 17], with 0.05 µg/mL (≈ 0.0727 µM).
`CO/N=C(\C(=O)N[C@@H]1C(=O)N2C(C(=O)[O-])=C(C[N+]3(C)CCN(C(=O)c4ccc(O)c(O)c4)CC3)CS[C@H]12)c1csc(N)n1` [No. 3]: the MIC in data set [1] worked out at 0.05 µg/mL (≈ 0.0792 µM).
On the same count and under the same terms, under `COc1cc(C(=O)N2CC[N+](C)(CC3=C(C(=O)[O-])N4C(=O)[C@@H](NC(=O)C(=NOC(C)(C)C(=O)O)c5csc(N)n5)[C@H]4SC3)CC2)ccc1O` [No. 14] stands 3.1 µg/mL (≈ 4.32 µM); under `CC(C)(O/N=C(\C(=O)N[C@@H]1C(=O)N2C(C(=O)[O-])=C(C[N+]3(C)CCN(C(=O)c4ccc(O)c(O)c4Cl)CC3)CS[C@H]12)c1csc(N)n1)C(=O)O` [No. 9, 7β-[2-(2-aminothiazol-4-yl)-2-(1-carboxy-1-methylethoxyimino)acetamido]-3-[4-(2-chloro-3,4-dihydroxybenzoyl)-1-methylpiperazinio-1-yl]methyl-3-cephem-4-carboxylate], 0.02 µg/mL (≈ 0.0271 µM).
